Common to all, as to type: biochemical
Data set [1] concerns the target T1, Escherichia coli malate dehydrogenase Ec-Mdh variant R81A G179D, SEQ ID No. 168 (Escherichia coli, UniProt P61889, G179D/R81A).
T1 sequence (P61889 1-312 R81A/G179D): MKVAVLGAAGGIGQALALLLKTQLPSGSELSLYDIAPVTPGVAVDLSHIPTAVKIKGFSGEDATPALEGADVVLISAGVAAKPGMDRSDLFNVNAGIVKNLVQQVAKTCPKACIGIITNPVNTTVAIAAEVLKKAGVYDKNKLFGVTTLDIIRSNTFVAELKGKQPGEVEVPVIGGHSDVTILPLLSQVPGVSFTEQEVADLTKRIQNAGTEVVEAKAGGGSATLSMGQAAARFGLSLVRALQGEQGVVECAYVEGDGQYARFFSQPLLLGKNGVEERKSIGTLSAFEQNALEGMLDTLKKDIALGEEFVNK
The data set is described as follows: DHB dehydrogenase kinetics, Ec-Mdh R81A G179D. To be noted: 37° C., pH 8, 10 mM NAD. Here is the method:
Site-directed mutagenesis of the E. coli mdh and the B. subtilis mdh genes were carried out using the oligonucleotide pairs listed in Table 3 and the pET28-Ec-mdh and the pET28-Bs-mdh plasmids as the templates. Point mutations to change the amino acid sequence were introduced by PCR (Phusion 1U, HF buffer 20% (v/v), dNTPs 0.2 mM, direct and reverse primers 0.04 μM each, template plasmid 50 ng, water) using the oligonucleotide pairs listed in Table 3. Mutated genes contained a new restriction site listed in Table 3 (introduced using silent mutations) in addition to the functional mutation to facilitate identification of mutated clones. The PCR products were digested by DpnI at 37° C. for 1 h to remove template DNA, and transformed into competent E. coli DH5-alpha cells (NEB). The mutated plasmids were identified by restriction site analysis and verified to carry the desired mutations by DNA sequencing.
Mutant enzymes were expressed, purified and tested for DHB dehydrogenase activity as described in Example 1.
The mutation R81A in Ec-Mdh (by reference to SEQ ID No. 124) was combined with additional changes in the protein sequence.

For data set [2], the target named is T2, Escherichia coli malate dehydrogenase Ec-Mdh variant R81A I12V, SEQ ID No. 162 (Escherichia coli, UniProt P61889, I12V/R81A).
T2 sequence (P61889 1-312 I12V/R81A): T1 sequence (P61889 1-312 R81A/G179D) with I12V, D179G
The data set is described as follows: DHB dehydrogenase / malate dehydrogenase kinetics, Ec-Mdh R81A I12V. The following applies: read-out: Km (DHB); 37° C., pH 8, 10 mM NAD.
Experimental: (§4) Activity of the cytosolic DHB dehydrogenases (Ec-Mdh, Bs-Mdh, Ll-LdhA) was assayed by following the DHB-dependent reduction of NAD^+.
(§5) The reaction mixture contained 60 mM Hepes (pH 8), 50 mM potassium chloride, 5 mM MgCl2, 10 mM NAD, (optionally, 5 mM fructose-1,6-bisphosphate (F16bP)) (all products from Sigma), and appropriate amounts of purified enzyme or cell extract. Reactions were started by adding 50 mM (L)-2,4-dihydroxybutyrate (Rhodia).
All enzymatic assays were carried out at 37° C. in 96-well flat bottomed microtiter plates in a final volume of 250 μL.

In data set [3] the target is T3, Zymomonas mobilis pyruvate decarboxylase Zm-Pdc variant W392L, SEQ ID No. 192 (Zymomonas mobilis, UniProt P06672, W392L).
T3 sequence (P06672 1-568 W392L): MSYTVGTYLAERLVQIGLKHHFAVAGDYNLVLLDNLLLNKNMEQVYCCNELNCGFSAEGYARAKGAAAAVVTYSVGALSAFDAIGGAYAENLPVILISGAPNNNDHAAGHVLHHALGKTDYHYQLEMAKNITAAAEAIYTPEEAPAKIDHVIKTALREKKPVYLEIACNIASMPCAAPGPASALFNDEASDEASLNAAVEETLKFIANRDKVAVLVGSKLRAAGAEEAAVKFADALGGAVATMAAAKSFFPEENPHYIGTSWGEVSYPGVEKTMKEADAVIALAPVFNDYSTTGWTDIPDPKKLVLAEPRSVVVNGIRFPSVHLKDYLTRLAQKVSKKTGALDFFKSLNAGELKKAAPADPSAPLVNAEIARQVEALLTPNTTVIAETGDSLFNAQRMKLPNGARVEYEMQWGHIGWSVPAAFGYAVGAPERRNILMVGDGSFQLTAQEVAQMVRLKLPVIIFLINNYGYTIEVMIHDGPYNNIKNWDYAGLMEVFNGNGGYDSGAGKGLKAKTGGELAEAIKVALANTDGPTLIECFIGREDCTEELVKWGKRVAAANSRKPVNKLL
The data set is described as follows: OHB decarboxylase / pyruvate decarboxylase kinetics, Zm-Pdc W392L. The following applies: 37° C., pH 7, coupled to yeast alcohol dehydrogenase/NADH; read-out: Km (natural substrate, pyruvate). The method, then: (§1) OHB decarboxylase activity was assayed by coupling the decarboxylase activity to the NADPH-dependent reduction of the released 3-hydroxypropanal by purified aldehyde reductase, YqhD, from E. coli. The decarboxylation of pyruvate was coupled to the NADH-dependent reduction of acetaldehyde catalysed by yeast alcohol dehydrogenase. Branched-chain alpha-ketoacid decarboxylase activity was measured on 4-methyl-2-oxovaleric acid by coupling to the NADH-dependent reduction of 3-methylbutanal catalysed by horse liver alcohol dehydrogenase. […] Reactions were started by adding 20 mM 2-oxo-4-hydroxybutyrate (OHB), 10 mM 4-methyl-2-oxovaleric acid (MOV), or 5 mM pyruvate.
(§2) Site-directed mutagenesis of the L. lactis kdcA and the Z. mobilis Pdc genes was carried out using the oligonucleotide pairs listed in Table 9 and the pET28-Ll-kdcA and pET28-Zm-Pdc plasmids, respectively, as the template.
(§3) Mutant enzymes were expressed, purified and tested for OHB decarboxylase, pyruvate decarboxylase and MOV decarboxylase activity as described in Example 4.

The target of data set [4] is T4, Zymomonas mobilis pyruvate decarboxylase Zm-Pdc variant G413N, SEQ ID No. 194 (Zymomonas mobilis, UniProt P06672, G413N).
T4 sequence (P06672 1-568 G413N): T3 sequence (P06672 1-568 W392L) with L392W, G413N
The data set is described as follows: OHB decarboxylase / pyruvate decarboxylase kinetics, Zm-Pdc G413N. The following applies: 37° C., pH 7, coupled to yeast alcohol dehydrogenase/NADH; read-out: Km (natural substrate, pyruvate). The method, then: as §1, §2, §3

Data set [5] in a line: Malate dehydrogenase activity (natural substrate).
Data set [6] in a line: DHB dehydrogenase activity of cytosolic enzymes (DHB-dependent reduction of NAD+).
Experimental: as §4, §5
All enzymatic assays were carried out at 37° C. in 96-well flat bottomed microtiter plates in a final volume of 250 μL. The reactions were followed by the characteristic absorption of NADH at 340 nm (εNADH=6.22 mM^−1 cm^−1) or the absorbtion of DCIP at 655 nm (εDCIP=5.9 mM^−1 cm^−1) in a microplate reader (BioRad 680XR).

This is an account of results in patent US9605283B2, “Microorganism modified for the production of 1,3-propanediol” (INSTITUT NATIONAL DES SCIENCES APPLIQUÉES, priority 2012, dated 2017).

Usually Km stands for the substrate concentration at which the rate is half of its maximum.

Substitutions are numbered along the chain they refer to.

With `O=C(O)[C@@H](O)CCO` [DHB, (L)-2,4-dihydroxybutyrate], the Km in data set [1] and in data set [2] was greater than 100 mM throughout.
In the case of `CC(=O)C(=O)O` [pyruvate], the Km in data set [3] and in data set [4] was greater than 50 mM throughout.
Turning to “Bs-Mdh: (L)-malate dehydrogenase of Bacillus subtilis, wild-type, SEQ ID No. 126”, the “Max. specific activity, Natural substrate” value in data set [5] (natural substrate (L)-malate, Table 2) worked out at 10.5 µmol/mg/min. The activity on malate in data set [5] (text of Example 2) is 10.9 µmol/mg/min. The “DHB dehydrogenase activity (in words)” value in data set [6] (cytosolic wild-type enzymes) was “no measurable DHB dehydrogenase activity”. Besides, the “maximum activity on DHB” value in data set [6] (text of Example 2) was 0 µmol/mg/min. Moreover, the “Max. specific activity, DHB” value in data set [6] (when not saturated, activity estimated at 50 mM substrate, Table 2) is 0 µmol/mg/min.
